In US9040518B2, “Chemical compounds” (GlaxoSmithKline LLC, priority 2010, dated 2015):
Structures can show the parent of a compound that is named as a salt.

Target: ileal bile acid cotransporter (iBAT) (Homo sapiens (Human), UniProt Q12908)
Test: Human iBAT inhibition: [3H]-taurocholate uptake into HEK293 cells expressing human iBAT
Format: cell-based
Conditions: HEK293 cells transduced with human iBAT Bacmam virus, 90 minutes at ambient temperature, mean of at least 2 datapoints
Procedure: Method for Determination of Human iBAT Inhibition:
In preparation for measurement of bile acid uptake into cells expressing the ileal bile acid cotransporter (iBAT), HEK293 cells were cultured in DMEM/F12 supplemented with 10% FBS. Twenty four hours prior to running an experiment, cells were harvested when at a confluence of 80-90%. Cells were seeded in poly-d-lysine coated plates at 50,000 cells per well, and human iBAT Bacmam virus was added such that each well contains 3.67×10e6 pfu (73.4pfu/cell). Each assay plate was covered with Breathe Easy Seal and placed in an incubator for 24 hours to allow expression of the transporter.
On the day of the uptake experiment, 10 mM HEPES was added to Hank's Balanced Salt Solution, and the pH was adjusted to 7.4 with TRIS (HBSSH). The assay buffer was prepared by adding […] [^3H]-taurocholate and 10 μM cold taurocholate to room temperature HBSSH. A separate washing buffer was prepared by adding 10 μM cold taurocholate to HBSSH (˜30 ml per assay plate) and placed on ice. Using 100% DMSO, 8 point, 3-fold dilution curves for each test compound was prepared starting at 200 μM. Similarly, an 8 point dose response curve was prepared of the control compound [(3R,5R)-3-butyl-3-ethyl-7,8-bis(methyloxy)-5-phenyl-2,3,4,5-tetrahydro-1,4-benzothiazepine 1,1-dioxide (Brieaddy, L. E. WO9605188, 1996)] starting at 1.8 mM. Drug plates were created by adding 3 μL of each concentration to a v-bottom 96-well plate then diluted 60-fold with 177 μL of assay buffer. Plates were removed from the incubator and allowed to cool to ambient temperature. Media was aspirated, and wells were washed once with 300 μL HBSSH. 50 μL of each dose response curve concentration was added in triplicate by column to the assay plates, reserving column 10 for control (assay buffer+1.67% DMSO) and columns 11 and 12 for the control compound. Plates were incubated at ambient temperature for 90 minutes then the plates were aspirated then washed 1× with 300 μL of wash buffer. 220 μL of Microscint 20 was added to each well, and the plates were sealed. The amount of [^3H]-taurocholate in cell lysate was quantitated using a microplate scintillation counter on the following day.
IC50's can be generated using the formula, y=(Vmax*x^n)/(K^n+x^n).

Sequence of ileal bile acid cotransporter (iBAT) (Q12908 whole entry): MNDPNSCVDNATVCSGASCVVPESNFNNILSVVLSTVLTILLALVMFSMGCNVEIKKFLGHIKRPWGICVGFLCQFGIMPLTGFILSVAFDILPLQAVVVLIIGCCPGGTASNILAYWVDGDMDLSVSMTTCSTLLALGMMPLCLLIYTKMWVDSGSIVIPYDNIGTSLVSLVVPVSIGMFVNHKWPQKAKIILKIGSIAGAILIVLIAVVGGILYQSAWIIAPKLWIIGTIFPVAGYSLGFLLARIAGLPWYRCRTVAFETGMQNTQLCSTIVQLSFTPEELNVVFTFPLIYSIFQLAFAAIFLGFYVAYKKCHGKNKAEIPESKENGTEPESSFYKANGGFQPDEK

IC50	Structure (SMILES)
648 nM	CCCC[C@]1(CC)CS(=O)(=O)c2cc(CNCC(=O)O)c(OC)cc2[C@H](c2ccccc2)N1 [Example 44, N-{[(3R,5S)-3-butyl-3-ethyl-7-(methyloxy)-1,1-dioxido-5-phenyl-2,3,4,5-tetrahydro-1,4-benzothiazepin-8-yl]methyl}glycine trifluoroacetate salt]
1950 nM	CCCC[C@]1(CC)CS(=O)(=O)c2cc(CP(=O)(O)O)c(OC)cc2[C@H](c2ccccc2)N1 [Example 45, {[(3R,5S)-3-butyl-3-ethyl-7-(methyloxy)-1,1-dioxido-5-phenyl-2,3,4,5-tetrahydro-1,4-benzothiazepin-8-yl]methyl}phosphonic acid trifluoroacetate salt]
2 nM	CCCC[C@]1(CC)CS(=O)(=O)c2cc(CNCC(=O)O)c(OC)cc2[C@@H](c2ccccc2)N1O [Example 46, N-{[(3R,5R)-3-butyl-3-ethyl-4-hydroxy-7-(methyloxy)-1,1-dioxido-5-phenyl-2,3,4,5-tetrahydro-1,4-benzothiazepin-8-yl]methyl}glycine]
17 nM	CCCC[C@]1(CC)CS(=O)(=O)c2cc(CN(O)CC(=O)O)c(OC)cc2[C@@H](c2ccccc2)N1 [Example 48, N-{[(3R,5R)-3-butyl-3-ethyl-7-(methyloxy)-1,1-dioxido-5-phenyl-2,3,4,5-tetrahydro-1,4-benzothiazepin-8-yl]methyl}-N-hydroxyglycine]
41 nM	CCCC[C@]1(CC)CS(=O)(=O)c2cc(CN(C)CC(=O)O)c(OC)cc2[C@@H](c2ccccc2)N1 [Example 49, N-{[(3R,5R)-3-butyl-3-ethyl-7-(methyloxy)-1,1-dioxido-5-phenyl-2,3,4,5-tetrahydro-1,4-benzothiazepin-8-yl]methyl}-N-methylglycine ammonium salt]
51 nM	CCCC[C@]1(CC)CS(=O)(=O)c2cc(CCP(=O)(O)O)c(OC)cc2[C@@H](c2ccccc2)N1 [Example 51, {2-[(3R,5R)-3-butyl-3-ethyl-7-(methyloxy)-1,1-dioxido-5-phenyl-2,3,4,5-tetrahydro-1,4-benzothiazepin-8-yl]ethyl}phosphonic acid bis-ammonium salt]
59 nM	CCCC[C@]1(CC)CS(=O)(=O)c2cc(CN[C@@H](CO)C(=O)O)c(OC)cc2[C@@H](c2ccccc2)N1 [Example 52, N-{[(3R,5R)-3-butyl-3-ethyl-7-(methyloxy)-1,1-dioxido-5-phenyl-2,3,4,5-tetrahydro-1,4-benzothiazepin-8-yl]methyl}-L-serine bis-ammonium salt]
67 nM	CCCC[C@]1(CC)CS(=O)(=O)c2cc(CN[C@@H](CSSC[C@H](N)C(=O)O)C(=O)O)c(OC)cc2[C@@H](c2ccccc2)N1 [Example 53, N-{[(3R,5R)-3-butyl-3-ethyl-7-(methyloxy)-1,1-dioxido-5-phenyl-2,3,4,5-tetrahydro-1,4-benzothiazepin-8-yl]methyl}-L-cystine bis-ammonium salt]
124 nM	CCCC[C@]1(CC)CS(=O)(=O)c2cc(CP(=O)(O)O)c(OC)cc2[C@@H](c2ccccc2)N1O [Example 54, {[(3R,5R)-3-butyl-3-ethyl-4-hydroxy-7-(methyloxy)-1,1-dioxido-5-phenyl-2,3,4,5-tetrahydro-1,4-benzothiazepin-8-yl]methyl}phosphonic acid]
131 nM	CCCC[C@]1(CC)CS(=O)(=O)c2cc(/C=C/P(=O)(O)O)c(OC)cc2[C@@H](c2ccccc2)N1 [Example 55, {(E)-2-[(3R,5R)-3-butyl-3-ethyl-7-(methyloxy)-1,1-dioxido-5-phenyl-2,3,4,5-tetrahydro-1,4-benzothiazepin-8-yl]ethenyl}phosphonic acid bis-ammonium salt]
425 nM	CCCC[C@]1(CC)CS(=O)(=O)c2cc(CN[C@H](C(=O)O)[C@@H](C)O)c(OC)cc2[C@@H](c2ccccc2)N1 [Example 56, N-{[(3R,5R)-3-butyl-3-ethyl-7-(methyloxy)-1,1-dioxido-5-phenyl-2,3,4,5-tetrahydro-1,4-benzothiazepin-8-yl]methyl}-L-threonine ammonium salt]
1460 nM	CCCC[C@]1(CC)CS(=O)(=O)c2cc(CN[C@@H](CCCCN)C(=O)O)c(OC)cc2[C@@H](c2ccccc2)N1 [Example 58, N^2-{[(3R,5R)-3-butyl-3-ethyl-7-(methyloxy)-1,1-dioxido-5-phenyl-2,3,4,5-tetrahydro-1,4-benzothiazepin-8-yl]methyl}-L-lysine ammonium salt]
3330 nM	CCCC[C@]1(CC)CS(=O)(=O)c2cc(CN[C@@H](CCCCN(C)C)C(=O)O)c(OC)cc2[C@@H](c2ccccc2)N1 [Example 59, N^2-{[(3R,5R)-3-butyl-3-ethyl-7-(methyloxy)-1,1-dioxido-5-phenyl-2,3,4,5-tetrahydro-1,4-benzothiazepin-8-yl]methyl}-N^6,N^6-dimethyl-L-lysine ammonium salt]

Structure (SMILES)	IC50
CCCC[C@]1(CC)CS(=O)(=O)c2cc(CNC(CC(=O)O)CC(=O)O)c(OC)cc2[C@@H](c2ccccc2)N1O [Example 50, 3-({[(3R,5R)-3-butyl-3-ethyl-4-hydroxy-7-(methyloxy)-1,1-dioxido-5-phenyl-2,3,4,5-tetrahydro-1,4-benzothiazepin-8-yl]methyl}amino)pentanedioic acid trifluoroacetate salt]	51 nM
CCCC[C@]1(CC)CS(=O)(=O)c2cc(CN3CCC[C@@H]3C(=O)O)c(OC)cc2[C@@H](c2ccccc2)N1 [Example 57, 1-{[(3R,5R)-3-butyl-3-ethyl-7-(methyloxy)-1,1-dioxido-5-phenyl-2,3,4,5-tetrahydro-1,4-benzothiazepin-8-yl]methyl}-D-proline ammonium salt]	751 nM
CCCC[C@]1(CC)CS(=O)(=O)c2cc(CN(CP(=O)(O)O)CP(=O)(O)O)c(OC)cc2[C@@H](c2ccccc2)N1 [Example 60, [({[(3R,5R)-3-butyl-3-ethyl-7-(methyloxy)-1,1-dioxido-5-phenyl-2,3,4,5-tetrahydro-1,4-benzothiazepin-8-yl]methyl}imino)dimethanediyl]bis(phosphonic acid) tetraammonium salt]	3330 nM
CCCC[C@]1(CC)CS(=O)(=O)c2cc(CN(CP(=O)(O)O)CP(=O)(O)OCC)c(OC)cc2[C@@H](c2ccccc2)N1 [Example 61, [({[(3R,5R)-3-butyl-3-ethyl-7-(methyloxy)-1,1-dioxido-5-phenyl-2,3,4,5-tetrahydro-1,4-benzothiazepin-8-yl]methyl}{[(ethyloxy)(hydroxy)phosphoryl]methyl}amino)methyl]phosphonic acid triammonium salt]	3360 nM
CCCC[C@]1(CC)CS(=O)(=O)c2cc(CNCP(=O)(O)O)c(OC)cc2[C@@H](c2ccccc2)N1 [Example 62, [({[(3R,5R)-3-butyl-3-ethyl-7-(methyloxy)-1,1-dioxido-5-phenyl-2,3,4,5-tetrahydro-1,4-benzothiazepin-8-yl]methyl}amino)methyl]phosphonic acid trifluoroacetate salt]	3900 nM
CCCC[C@]1(CC)CS(=O)(=O)c2cc(CNC(=O)C(=O)O)c(OC)cc2[C@@H](c2ccccc2)N1 [Example 64, ({[(3R,5R)-3-butyl-3-ethyl-7-(methyloxy)-1,1-dioxido-5-phenyl-2,3,4,5-tetrahydro-1,4-benzothiazepin-8-yl]methyl}amino)(oxo)acetic acid]	6 nM
CCCCC1(CCCC)CS(=O)(=O)c2cc(CNC(CC(=O)O)CC(=O)O)c(OC)cc2C(c2ccccc2)N1 (centres unmarked) [Example 65, 3-({[3,3-dibutyl-7-(methyloxy)-1,1-dioxido-5-phenyl-2,3,4,5-tetrahydro-1,4-benzothiazepin-8-yl]methyl}amino)pentanedioic acid trifluoroacetate salt]	337 nM
CCCCC1(CCCC)CS(=O)(=O)c2cc(CNCC(=O)O)c(OC)cc2C(c2ccccc2)N1 (centres unmarked) [Example 66, N-{[3,3-dibutyl-7-(methyloxy)-1,1-dioxido-5-phenyl-2,3,4,5-tetrahydro-1,4-benzothiazepin-8-yl]methyl}glycine trifluoroacetate salt]	21 nM
CCCCC1(CCCC)CS(=O)(=O)c2cc(CP(=O)(O)O)c(OC)cc2C(c2ccccc2)N1 (centres unmarked) [Example 67, {[3,3-dibutyl-7-(methyloxy)-1,1-dioxido-5-phenyl-2,3,4,5-tetrahydro-1,4-benzothiazepin-8-yl]methyl}phosphonic acid trifluoroacetate salt]	52 nM
CCCC[C@]1(CC)CS(=O)(=O)c2cc(CNCC(=O)O)c(N(C)C)cc2[C@@H](c2ccccc2)N1 [Example 68, N-{[(3R,5R)-3-butyl-7-(dimethylamino)-3-ethyl-1,1-dioxido-5-phenyl-2,3,4,5-tetrahydro-1,4-benzothiazepin-8-yl]methyl}glycine trifluoroacetate salt]	1 nM
